Measured values from patent US7157092B1, “Acyl pseudodipeptides, preparation method and pharmaceutical compositions containing same” (Om Pharma, priority 1998, dated 2007).
Values joined by “and” are separate entries in the source; they are usually repeats but may differ in a detail not shown here. Equal entries are not always repeated. Where two headings read alike, the source gives them in different places.

Assays:
[1] = tested on: limulus amoebocyte lysate (LAL); assay: Chromogenic Limulus Amoebocyte Lysate (LAL) endotoxicity test; format: biochemical; settings: for LAL activity in EU/mg: mean ± standard deviation
Description: Endotoxicity was determined by a chromogenic Limuls Amoebocyte Lysate test (Chromogenic LAL of Charles River Endosafe, batch # EK412E, Charleston, USA). This test is based on activation by a lipopolysaccharide (LPS) or structurally analogous products, of an enzymatic cascade present in LAL.
The enzymatic reaction is conducted at 37° C. and the time-course chromogen formation is measured at 405 nm. In the final stage of this time-course determination assay, the time required to achieve an OD of 0.2 unit is recorded and the endotoxic activity is calculated based on an LPS standard (standard curve).
Results are expressed in EU (Endotoxin Unit) in relation to a standardized preparation of E. coli lipolysaccharides. For this series of assays, 1 EU corresponds to […] of LPS equivalent.
It is mandatory to compare the quantitative assay of the pyrogen content with a given well standardized single series of experiments.

[2] = tested on: Pb CS His6-242-310 antigen; assay: Murine immunization with Pb CS His6-242-310 peptide: specific antibody titer (ELISA); format: in vivo, BALB/c mice; settings: 0.05 mg adjuvant + 0.02 mg antigen s.c.; for serological response following three shots: ELISA 2 weeks after third shot, FIG. 15; for anti-Pb CS His6-242-310 antibody titer after one single shot: ELISA 3 weeks after first shot, FIG. 13; for serological response after two shots: ELISA 4 weeks after second shot, FIG. 14
Description: Antigen: Pb CS([…] Chem., 8: (1979) 350–341).
Serum sampling: Blood sampling is conducted at weeks 0, 3, 7 and 9. Blood is allowed to stand for 6 min. at 37° C., then is kept overnight at 4° C. Serum is subsequently frozen at −80° C. until time of antibody assay.
Assay of antibodies specifically raised against Pb Cs His6 242-310 antigen is performed by ELISA. Binding of antigen is done in 96-well microtiter plates (Maxisorp F96, Nunc, DK) by conducting overnight incubation in a moist chamber at 4° C. with each well containing 0.1 ml of PBS (phosphate buffered saline) containing 0.001 mg/ml of Pb CS His6242-310 antigen. Blocking of the microtiter plate is performed with PBS containing 1% of bovine serum albumin (BSA, Fluka, Switzerland). Plates are washed with PBS containing 0.05% Tween 20 (Sigma, St. Louis, Mo., USA). Serum samples collected at 0, 3, 7 and 9 weeks are serially diluted with dilution buffer (PBS containing 2.5% of skimmed milk powder and 0.05% of Tween 20), then transferred into a microtiter plate and allowed to stand for 1 hr. at room temperature (RT). Plates are then washed with PBS, a diluted solution containing mouse polyclonal anti-immunoglobulin coupled to alkaline phosphatase (Sigma, St. Louis, Mo., USA) is then dispensed into those plates and incubated for 1 hr. at RT. […] Absorbance at 405 nm is read with a microtiter plate reader (Dynatech 25000 ELISA reader, Ashford, Middlesex, UK), each serum sample is measured in duplicate. Results stand for the mean of all measurements relating to mice in each group.

[3] = tested on: LmCPb antigen; format: in vivo, CBA mice; settings: for extent of proliferation, times higher than cultures from mice administered antigen alone (without adjuvant): in presence of LmCPb (15 μg/ml)
[4] = tested on: LmCPb antigen; format: in vivo, CBA mice; settings: 2 injections LmCPb with adjuvant
[5] = tested on: PROb syngenic tumoral line; assay: Treatment of peritoneal carcinoma induced by PROb cells in BDIX rats
[6] = tested on: Pb CS 245-252 T-cell epitope; assay: Murine immunization with Pb CS His6-242-310 peptide: CTL response (γ IFN ELISPOT); settings: 0.05 mg adjuvant + 0.02 mg antigen s.c.; FIGS. 17-20
[7] = tested on: mouse bone marrow stem cells; assay: Bone marrow stem cell proliferation (XTT); format: cell-based, C57/BL6 mice; settings: 7 days incubation, FIG. 1
Description: Two six-week old male C57/BL6 mice were killed by CO2 inhalation followed by cervical dislocation. The mice were washed with alcohol, and the skin of the posterior members was entirely removed. The hip, femur and tibia bones were removed by joint disruption. The flesh was grossly removed using a scalpel. The bones were cleaned and the bone ends were cut with scissors. The marrrow was extracted from the bone lumen by injecting three times 1 ml of Dulbecco's Modified Eagle Medium (DH medium) from the extremities which were cut with scissors. The cells were suspended in DH medium and centrifuged at 300×g for 5 minutes. The supernatant fluid was discarded and the stem cells were suspended in DH medium supplemented with 20% foetal calf serum (FCS) The cell concentration was adjusted to 500 000 cells/ml. […]
Proliferation is determined by measuring the oxydation of a chromogenic substrate (XTT) in mitochondria of viable cells.
7 days later, the microtiter plates are centrifuged for 5 minutes at 400×g, and 100 μl of the supernatant fluid are withdrawn and discarded. […] After 8 hour incubation at 37° C. under 8% CO2 in an incubator at 100% RH, the microtiter plates are read with a spectrophotometer at 480 nm against a standard at 690 nm.
The results are expressed as mean values (+standard deviation) by plotting a dose versus response curve. […]

[8] = 2 injections LmCPb 3–5 μg with 2×50 μg OM adjuvant or 200 μg BCG, in vitro: No stimulant
[9] = 2 injections LmCPb with adjuvant, in vitro: Amastigotes 2 × 10^−6/ml
[10] = 2 injections LmCPb with adjuvant, in vitro: Amastigotes 6 × 10^−6/ml
[11] = 2 injections LmCPb with adjuvant, in vitro: Amastigotes 17 × 10^−6/ml
[12] = 2 injections LmCPb with adjuvant, in vitro: Con A 5 μg/ml
[13] = 2 injections LmCPb with adjuvant, in vitro: LmCPb 0.6 μg/ml
[14] = 2 injections LmCPb with adjuvant, in vitro: LmCPb 1.7 μg/ml
[15] = 2 injections LmCPb with adjuvant, in vitro: LmCPb 5 μg/ml
[16] = 2 injections LmCPb with adjuvant, in vitro: LmCPb 15 μg/ml
[17] = in vitro: Amastigotes 17 × 10^−6/ml
[18] = 10 i.v. injections of 1 mg/kg from day 13
[19] = 10 i.v. injections of 1 mg/kg from day 13, dissection at D42

| Structure (SMILES) | LAL activity in LPS equivalents [1] [ng eq. LPS/mg] | LAL activity in EU/mg [1] [EU/mg] | serological response following three shots [2] | anti-Pb CS His6-242-310 antibody titer after one single shot [2] | serological response after two shots [2] | 3H-TdR take-up [3, 8] [cpm × 10^−3/ml] | 3H-TdR take-up [3, 9] [cpm × 10^−3/ml] | 3H-TdR take-up [3, 10] [cpm × 10^−3/ml] | 3H-TdR take-up [3, 11] [cpm × 10^−3/ml] | 3H-TdR take-up [3, 12] [cpm × 10^−3/ml] | 3H-TdR take-up [3, 13] [cpm × 10^−3/ml] | 3H-TdR take-up [3, 14] [cpm × 10^−3/ml] | 3H-TdR take-up [3, 15] [cpm × 10^−3/ml] | 3H-TdR take-up [3, 16] [cpm × 10^−3/ml] | extent of proliferation, times higher than cultures from mice administered antigen alone (without adjuvant) [3] [times] | CTL activity of lymphocytes from spleen and inguinal lymph nodes (γ IFN spots) [6] | also measured |
| --- | --- | --- | --- | --- | --- | --- | --- | --- | --- | --- | --- | --- | --- | --- | --- | --- | --- |
| CCCCCCCCCCCC(=O)O[C@H](CCCCCCCCCCC)CC(=O)NC(CCOP(=O)(O)O)C(=O)NCCCC(COP(=O)(O)O)NC(=O)C[C@H](O)CCCCCCCCCCC (stereo partly drawn) [OM-294-DP, 3-[(R)-3-dodecanoyloxytetradecanoylamino]-4-oxo-5-aza-9-[(R)-3-hydroxytetradecanoylamino]decan-1,10-diol 1, 10-bis(dihydrogenphosphate)] | 6.2 | 56 ± 48 | greater than that of IFA | almost as high as the response observed with Incomplete Freund's Adjuvant (IFA) | greater than that of IFA | 21.8 ± 2.2 | 61.0 ± 1.7 | 81.5 ± 5.5 | 78.2 ± 7.8 | 135.9 ± 3.7 | 40.9 ± 12.7 | 57.2 ± 10.9 | 70.2 ± 9.2 | 100.0 ± 6.5 | 28 | clearly superior to the one induced by IFA | IL-4 concentration [4, 17]: 130 pg/mL and 110 pg/mL; γ IFN concentration [4, 17]: >600 pg/mL; γ IFN concentration ([4]; in vitro: Con A 5 μg/ml): 1200 pg/mL and 1900 pg/mL; IL-4 concentration ([4]; in vitro: LmCPb 15 μg/ml): 110 pg/mL and 88 pg/mL; γ IFN concentration ([4]; in vitro: LmCPb 15 μg/ml): 520 pg/mL and 360 pg/mL; IL-4 concentration ([4]; in vitro: No stimulant): <8 pg/mL; γ IFN concentration ([4]; in vitro: No stimulant): 460 pg/mL and 240 pg/mL; Volume ascite, mean ± σ [5, 18]: 8 ± 23 ml/rat; Volume ascite, range [5, 18]: 0–73 ml/rat; animals surviving at day 42 following injection of tumor cells [5, 18]: 90%; Number of rats suffering from carcinoma belonging to class 0 (no nodules visible) [5, 19]: 4; Number of rats suffering from carcinoma belonging to class 1 [5, 19]: 1; Number of rats suffering from carcinoma belonging to class 2 [5, 19]: 2; Number of rats suffering from carcinoma belonging to class 3 [5, 19]: 1; Number of rats suffering from carcinoma belonging to class 4 [5, 19]: 2; anti-tumor activity in the peritoneal carcinoma model ([5]; rat, in vivo): remarkable anti-tumor activity; Effect of product on ascite volume, p (Variance analysis) ([5]; versus NaCl): p < 0.05; Effect of product on carcinoma classification, p (Kruskall-Wallis test) ([5]; versus NaCl): p < 0.05; extension of rat survival rate, p (log rank test) ([5]; versus control): < 0.001 |
| CCCCCCCCCCCC(=O)O[C@H](CCCCCCCCCCC)CC(=O)NC(CCOP(=O)(O)O)C(=O)NCCCC(CO)NC(=O)C[C@H](O)CCCCCCCCCCC (stereo partly drawn) [OM-294-MP, 3-[(R)-3-dodecanoyloxytetradecanoylamino]-4-oxo-5-aza-9-[(R)-3-hydroxytetradecanoylamino]-decane-1,10-diol 1-dihydrogenphosphate] | 1.4 | 13 ± 2 | greater than that of IFA | almost as high as the response observed with Incomplete Freund's Adjuvant (IFA) | greater than that of IFA | 17.1 ± 2.5 | 28.4 ± 8.3 | 66.1 ± 4.5 | 68.7 ± 2.3 | 151.4 ± 3.7 | 22.9 ± 2.8 | 34.1 ± 4.1 | 70.3 ± 6.4 | 124.2 ± 12.0 | 23 | clearly superior to the one induced by IFA | cell proliferation of mouse bone marrow stem cells [7]: more moderate response than the diphosphorylated product |
